Results published in patent US9745297B2, “Compounds as modulators of RORC” (Boehringer Ingelheim International GmbH, priority 2013, dated 2017).

Molecular target: T1, RORγt (Homo sapiens, UniProt P51449)
T1 construct: expressed in transfected cells
T1 sequence (P51449 269-508 limits assumed): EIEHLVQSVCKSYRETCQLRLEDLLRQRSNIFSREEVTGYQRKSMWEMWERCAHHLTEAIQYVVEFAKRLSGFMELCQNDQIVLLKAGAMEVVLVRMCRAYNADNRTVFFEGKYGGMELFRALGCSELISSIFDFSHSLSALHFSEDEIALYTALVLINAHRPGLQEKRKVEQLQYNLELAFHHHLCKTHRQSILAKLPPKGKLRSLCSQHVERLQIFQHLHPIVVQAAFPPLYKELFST
Assay: RGA Assay: nuclear receptor transactivation assay, RORγt transactivation of a luciferase reporter
Assay type: cell-based
Settings: transiently transfected HEK 293 cells (pGL4.3 luc2P/GAL4UAS, pBIND Gal4DBD hRORC LBD), 20-24 hours incubation, luciferase readout
Experimental: A nuclear receptor transactivation assay was performed to quantitate the ability of test compounds to inhibit RORγt transactivation of a luciferase reporter. A similar assay is described in: Khan et al., Bioorganic & Medicinal Chemistry Letters 23 (2013), 532-536. The system uses transiently transfected HEK 293 cells cotransfected with two plasmids (pGL4.3, luc2P/GAL4UAS/Hygro, and pBIND, Ga14DBD hRORC LBD1-3). The positive control is co-transiently transfected with both plasmids, and the negative control contains the pGL4.3 promoter sequence. Assays were assembled in 384 well plates where transiently transfected cells and test compound at varying concentrations were incubated for 20-24 hours. The next day, assays plates are taken out and equillibrated at RT for 20-30 minutes. Bright-Glo™ Luciferase Assay System is used to detect Luciferase production. After addition of Bright GLO detection reagent, the plates were incubated at RT for 20 minutes. The plates were read on an Envision plate reader to measure luminescence signal. The RLU signal is converted to POC relative to control and blank wells.
Compound Dilution Buffer:
Bright Glo Luciferase Assay System: Promega #E2620
Thaw lysis buffer provided in kit, add 100 mL lysis buffer to substrate powder.

Compound | IC50 [nM]
COc1ncnc(C2CC2)c1-c1ccc2c(n1)C1(CCCC1)CN2C(=O)NCc1ccc(S(C)(=O)=O)cc1 [Example 66] | 650
CCS(=O)(=O)c1ccc(CNC(=O)N2CC3(CCCC3)c3nc(-c4c(OC(C)C)ncnc4C4CC4)ccc32)cc1 [Example 67] | 830
CC(C)Oc1ncnc(C2CC2)c1-c1ccc2c(n1)C1(CCCC1)CN2C(=O)NCc1ccc(S(C)(=O)=O)cc1 [Example 68] | 2500
CCOc1ncnc(C2CC2)c1-c1ccc2c(n1)C1(CCCC1)CN2C(=O)NCc1ccc(S(C)(=O)=O)cc1 [Example 69] | 1100
CCOc1ncnc(C2CC2)c1-c1ccc2c(n1)C1(CCCC1)CN2C(=O)NCc1ccc(S(=O)(=O)CC)cc1 [Example 70] | 760
CCC1(C)CN(C(=O)NCc2ccc(S(=O)(=O)CC)cc2)c2ccc(-c3cncnc3C(C)C)nc21 (stereo not drawn) [Example 72] | 2800
CCC1(C)CN(C(=O)NCc2ccc(S(=O)(=O)CC)cc2)c2ccc(-c3c(OC)ncnc3C3CC3)nc21 (stereo not drawn) [Example 73] | 1500
CCS(=O)(=O)c1ccc(CNC(=O)N2CC3(CCCC3)c3nc(-c4c(OC)ncnc4C(F)(F)F)ccc32)cc1 [Example 74] | 310
COc1ncnc(C(F)(F)F)c1-c1ccc2c(n1)C1(CCCC1)CN2C(=O)NCc1ccc(S(C)(=O)=O)cc1 [Example 75] | 3700
CCS(=O)(=O)N1CCC(CNC(=O)N2CC3(CCCC3)c3nc(-c4c(OC)ncnc4C4CC4)ccc32)CC1 [Example 76] | 15000
COc1ncnc(C2CC2)c1-c1ccc2c(n1)C(C)(C)CN2C(=O)NCc1ccc(S(C)(=O)=O)cc1 [Example 77] | 4000
CNS(=O)(=O)c1ccc(CNC(=O)N2CC(C)(C)c3nc(-c4c(OC)ncnc4C4CC4)ccc32)cc1 [Example 78] | 2400
CCS(=O)(=O)c1ccc(CNC(=O)N2CC3(CCCC3)c3nc(-c4c(C)ncnc4C4CC4)ccc32)cc1 [Example 79] | 380
Cc1ncnc(C2CC2)c1-c1ccc2c(n1)C1(CCCC1)CN2C(=O)NCc1ccc(S(C)(=O)=O)cc1 [Example 80] | 840
CCS(=O)(=O)c1ccc(CNC(=O)N2CC(C)(C)c3nc(-c4c(OC)ncnc4C(F)(F)F)ccc32)cc1 [Example 81] | 1500

Second part, the compound after the results:

IC50 [nM] | Compound
7000 | CCS(=O)(=O)c1ccc(CNC(=O)N2CC3(CCCC3)c3nc(-c4cc(CN5CC[C@@H](O)C5)ccc4C4CC4)ccc32)cc1 [Example 82]
6900 | CCS(=O)(=O)c1ccc(CNC(=O)N2CC3(CCCC3)c3nc(-c4cc(CN5CC[C@H](O)C5)ccc4C4CC4)ccc32)cc1 [Example 83]
> 30000 | CCS(=O)(=O)c1ccc(CNC(=O)N2CC3(CCCC3)c3nc(-c4cc(CN5CC[C@@H](O)C5)ccc4C)ccc32)cc1 [Example 84]
> 30000 | CCS(=O)(=O)c1ccc(CNC(=O)N2CC3(CCCC3)c3nc(-c4cc(CN5CC[C@H](O)C5)ccc4C)ccc32)cc1 [Example 85]
2600 | CNS(=O)(=O)c1ccc(CNC(=O)N2CC3(CCCC3)c3cc(-c4ccc(F)cc4C)ncc32)cc1 [Example 86]
3900 | COc1ccc(-c2cc3c(cn2)N(C(=O)NCc2ccc(S(C)(=O)=O)cc2)CC3(C)C)c(C(F)(F)F)c1 [Example 87]
> 30000 | CC(C)c1ncncc1-c1cc2c(cn1)N(C(=O)NCc1ccc(S(C)(=O)=O)cc1)CC2(C)C [Example 88]
> 30000 | Cc1cc(F)ccc1-c1cc2c(cn1)N(C(=O)NCc1ccc(S(C)(=O)=O)cc1)CC2(C)C [Example 89]
> 30000 | COc1cc(C)c(-c2cc3c(cn2)N(C(=O)NCc2ccc(S(C)(=O)=O)cc2)CC3(C)C)cn1 [Example 90]
> 30000 | Cc1cc(O)ccc1-c1cc2c(cn1)N(C(=O)NCc1ccc(S(C)(=O)=O)cc1)CC2(C)C [Example 91]
> 30000 | Cc1cc(C#N)ccc1-c1cc2c(cn1)N(C(=O)NCc1ccc(S(C)(=O)=O)cc1)CC2(C)C [Example 92]
740 | CCS(=O)(=O)c1ccc(CNC(=O)N2CC3(CCCC3)c3cc(-c4c(OC)ncnc4C4CC4)ncc32)cc1 [Example 93]
3800 | CCS(=O)(=O)c1ccc(CNC(=O)N2CC(C)(C)c3cc(-c4c(OC)ncnc4C4CC4)ncc32)cc1 [Example 94]
> 30000 | CCS(=O)(=O)c1ccc(CNC(=O)N2CC3(CCCC3)c3cc(-c4cnc(OC)nc4C4CC4)ncc32)cc1 [Example 95]
> 30000 | CCS(=O)(=O)c1ccc(CNC(=O)N2CC3(CCCC3)c3cc(Cl)ncc32)cc1 [Example 96]
200 | CCS(=O)(=O)c1ccc(CNC(=O)N2CC3(CCCC3)c3nc(-c4c(C5CC5)ncnc4C4CC4)ccc32)cc1 [Example 97]
370 | CCS(=O)(=O)c1ccc(CNC(=O)N2CC3(CCCC3)c3nc(-c4c(C5CC5)ncnc4C4CC4)ccc32)nc1 [Example 98]
360 | CCS(=O)(=O)c1ccc(CNC(=O)N2CC3(CCCC3)c3nc(-c4c(C)ncnc4C(F)(F)F)ccc32)cc1 [Example 99]
220 | CCc1ncnc(C2CC2)c1-c1ccc2c(n1)C1(CCCC1)CN2C(=O)NCc1ccc(S(=O)(=O)CC)cc1 [Example 100]
420 | CCc1ncnc(C2CC2)c1-c1ccc2c(n1)C1(CCCC1)CN2C(=O)NCc1ccc(S(=O)(=O)CC)cn1 [Example 101]
730 | CCS(=O)(=O)c1cnc(CNC(=O)N2CC3(CCCC3)c3nc(-c4c(OC)ncnc4C4CC4)ccc32)nc1 [Example 102]
